Test results from ChEMBL document CHEMBL1201861, “Genomics of Drug Sensitity in Cancer screening data, Wellcome Trust Sanger Institute”.

Legend:
Assay in all cases: cells
[1] = system: CP66-MEL; type: functional, cell-based; conditions: Homo sapiens;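 further: growth inhibition of CP66-MEL cells determined in a cell viability assay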
Description: SANGER: Inhibition of human CP66-MEL cell growth in a cell viability assay.

[2] = system: CaR-1; type: functional, cell-based; conditions: Homo sapiens;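 further: growth inhibition of human CaR-1 cancer cells, read out with a cell viability assay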
Description: SANGER: Inhibition of human CaR-1 cell growth in a cell viability assay.

[3] = system: DU-145; type: functional, cell-based; conditions: Homo sapiens
Description: SANGER: Inhibition of human DU-145 cell growth in a cell viability assay.

[4] = system: Daoy; type: functional, cell-based; conditions: Homo sapiens;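 further: daoy cell growth inhibition, read out as cell viability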
Description: SANGER: Inhibition of human Daoy cell growth in a cell viability assay.

[5] = system: GP5d; type: functional, cell-based; conditions: Homo sapiens;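 further: growth inhibition of human GP5d cells, read out with a cell viability assay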
Description: SANGER: Inhibition of human GP5d cell growth in a cell viability assay.

[6] = system: HCC1569; type: functional, cell-based; conditions: Homo sapiens;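 further: growth inhibition of human HCC1569 cells, read out with a cell viability assay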
Description: SANGER: Inhibition of human HCC1569 cell growth in a cell viability assay.

[7] = system: HCC 2998; type: functional, cell-based; conditions: Homo sapiens;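 further: growth inhibition of human HCC2998 cells, measured with a cell viability read-out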
Description: SANGER: Inhibition of human HCC2998 cell growth in a cell viability assay.

[8] = system: HCC70; type: functional, cell-based; conditions: Homo sapiens;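 further: cell viability assay measuring how strongly the compound suppresses proliferation of HCC70 cells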
Description: SANGER: Inhibition of human HCC70 cell growth in a cell viability assay.

[9] = system: HO-1-N-1; type: functional, cell-based; conditions: Homo sapiens;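 further: growth inhibition of human HO-1-N-1 cells, read out with a cell viability assay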
Description: SANGER: Inhibition of human HO-1-N-1 cell growth in a cell viability assay.

[10] = system: HOP-92; type: functional, cell-based; conditions: Homo sapiens;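 further: cell viability readout, with IC50 reflecting inhibition of HOP-92 cell growth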
Description: SANGER: Inhibition of human HOP-92 cell growth in a cell viability assay.

[11] = system: HuTu80; type: functional, cell-based, Homo sapiens, HUTU-80; conditions: Homo sapiens, HuTu80;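 further: growth inhibition of HuTu80 human cells, determined with a cell viability readout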
Description: SANGER: Inhibition of human HUTU-80 cell growth in a cell viability assay.

[12] = system: HuP-T3; type: functional, cell-based; conditions: Homo sapiens;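 further: HuP-T3 cell growth inhibition, read out with a cell viability assay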
Description: SANGER: Inhibition of human HuP-T3 cell growth in a cell viability assay.

[13] = system: J82; type: functional, cell-based; conditions: Homo sapiens;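 further: growth inhibition of J82 cells, read out with a cell viability assay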
Description: SANGER: Inhibition of human J82 cell growth in a cell viability assay.

[14] = system: KYSE-520 cell line; type: functional, cell-based; conditions: Homo sapiens;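 further: growth inhibition of human KYSE-520 cells, read out with a viability assay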
Description: SANGER: Inhibition of human KYSE-520 cell growth in a cell viability assay.

[15] = system: LK-2; type: functional, cell-based; conditions: Homo sapiens;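 further: growth inhibition of LK-2 cells, read out with a viability assay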
Description: SANGER: Inhibition of human LK-2 cell growth in a cell viability assay.

[16] = system: MFE-280; type: functional, cell-based; conditions: Homo sapiens;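 further: growth inhibition of MFE-280 cells, determined with a cell viability readout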
Description: SANGER: Inhibition of human MFE-280 cell growth in a cell viability assay.

[17] = system: MKN-28; type: functional, cell-based; conditions: Homo sapiens;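 further: cell viability assay read-out, IC50 reflects suppression of growth of human MKN-28 cells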
Description: SANGER: Inhibition of human MKN28 cell growth in a cell viability assay.

[18] = system: NB14; type: functional, cell-based, Homo sapiens; conditions: Homo sapiens, NB14;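 further: growth inhibition of NB14 cells measured with a cell viability assay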
Description: SANGER: Inhibition of human NB14 cell growth in a cell viability assay.

[19] = system: NB7; type: functional, cell-based, Homo sapiens; conditions: Homo sapiens, NB7;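 further: growth inhibition of NB7 cells, read out with a cell viability assay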
Description: SANGER: Inhibition of human NB7 cell growth in a cell viability assay.

[20] = system: NCI-H2009; type: functional, cell-based; conditions: Homo sapiens;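 further: cell viability assay measuring inhibition of NCI-H2009 cell growth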
Description: SANGER: Inhibition of human NCI-H2009 cell growth in a cell viability assay.

[21] = system: NCI-H292; type: functional, cell-based; conditions: Homo sapiens;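 further: growth inhibition of NCI-H292 cells, read out with a cell viability assay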
Description: SANGER: Inhibition of human NCI-H292 cell growth in a cell viability assay.

[22] = system: NCI-H441; type: functional, cell-based; conditions: Homo sapiens;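 further: growth inhibition of NCI-H441 cells, read out with a cell viability assay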
Description: SANGER: Inhibition of human NCI-H441 cell growth in a cell viability assay.

[23] = system: NCI-H520; type: functional, cell-based; conditions: Homo sapiens;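 further: growth inhibition of NCI-H520 cells, measured by a cell viability assay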
Description: SANGER: Inhibition of human NCI-H520 cell growth in a cell viability assay.

[24] = system: NCI-H630; type: functional, cell-based; conditions: Homo sapiens;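 further: growth inhibition of NCI-H630 cells, read out with a cell viability assay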
Description: SANGER: Inhibition of human NCI-H630 cell growth in a cell viability assay.

[25] = system: NCI-H650; type: functional, cell-based; conditions: Homo sapiens;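 further: growth inhibition of NCI-H650 cells, read out by a viability assay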
Description: SANGER: Inhibition of human NCI-H650 cell growth in a cell viability assay.

[26] = system: OE33; type: functional, cell-based; conditions: Homo sapiens;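 further: growth inhibition of human OE33 cells, measured by a cell viability assay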
Description: SANGER: Inhibition of human OE33 cell growth in a cell viability assay.

[27] = system: OVCAR-5; type: functional, cell-based; conditions: Homo sapiens;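 further: growth inhibition of human OVCAR-5 cells, read out with a cell viability assay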
Description: SANGER: Inhibition of human OVCAR-5 cell growth in a cell viability assay.

[28] = system: PANC-08-13; type: functional, cell-based; conditions: Homo sapiens;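 further: cell growth inhibition, measured with a cell viability assay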
Description: SANGER: Inhibition of human PANC-08-13 cell growth in a cell viability assay.

[29] = system: RCM-1; type: functional, cell-based; conditions: Homo sapiens;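 further: growth inhibition of the RCM-1 line, determined with a cell viability readout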
Description: SANGER: Inhibition of human RCM-1 cell growth in a cell viability assay.

[30] = system: RPMI-7951; type: functional, cell-based; conditions: Homo sapiens
Description: SANGER: Inhibition of human RPMI-7951 cell growth in a cell viability assay.

[31] = system: SAS; type: functional, cell-based; conditions: Homo sapiens;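 further: growth inhibition of SAS cells, read out with a cell viability assay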
Description: SANGER: Inhibition of human SAS cell growth in a cell viability assay.

[32] = system: SF-295; type: functional, cell-based; conditions: Homo sapiens;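 further: growth inhibition of SF-295 cells, read out with a cell viability assay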
Description: SANGER: Inhibition of human SF295 cell growth in a cell viability assay.

[33] = system: SW-620; type: functional, cell-based; conditions: Homo sapiens;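 further: growth inhibition of human SW-620 cells, measured by a cell viability assay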
Description: SANGER: Inhibition of human SW620 cell growth in a cell viability assay.

[34] = system: SW780; type: functional, cell-based; conditions: Homo sapiens;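 further: growth inhibition of the cells, read out with a cell viability assay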
Description: SANGER: Inhibition of human SW780 cell growth in a cell viability assay.

[35] = system: SW837; type: functional, cell-based; conditions: Homo sapiens;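 further: growth inhibition of SW837 cells, determined with a cell viability assay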
Description: SANGER: Inhibition of human SW837 cell growth in a cell viability assay.

[36] = system: T47D; type: functional, cell-based; conditions: Homo sapiens;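 further: growth inhibition of human T47D cells, measured with a cell viability assay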
Description: SANGER: Inhibition of human T47D cell growth in a cell viability assay.

[37] = system: 647-V; type: functional, cell-based; conditions: Homo sapiens;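 further: growth inhibition of 647-V cells, read out with a cell viability assay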
Description: SANGER: Inhibition of human 647-V cell growth in a cell viability assay.

[38] = system: A-375; type: functional, cell-based; conditions: Homo sapiens;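 further: growth inhibition of A375 cells, read out with a cell viability assay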
Description: SANGER: Inhibition of human A375 cell growth in a cell viability assay.

[39] = system: BHY; type: functional, cell-based; conditions: Homo sapiens;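 further: cell growth inhibition read out by a viability assay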
Description: SANGER: Inhibition of human BHY cell growth in a cell viability assay.

[40] = system: C32; type: functional, cell-based; conditions: Homo sapiens;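 further: cell viability assay, with IC50 reflecting inhibition of C32 cell growth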
Description: SANGER: Inhibition of human C32 cell growth in a cell viability assay.

[41] = system: CAL-51; type: functional, cell-based; conditions: Homo sapiens;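 further: human CAL-51 cell line, growth inhibition read out via a cell viability assay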
Description: SANGER: Inhibition of human CAL-51 cell growth in a cell viability assay.

[42] = system: CAL-54; type: functional, cell-based; conditions: Homo sapiens;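 further: growth inhibition of CAL-54 cells, read out by a viability measurement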
Description: SANGER: Inhibition of human CAL-54 cell growth in a cell viability assay.

[43] = system: CAL-72; type: functional, cell-based; conditions: Homo sapiens;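 further: cell viability assay measuring inhibition of proliferation in the CAL-72 cell line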
Description: SANGER: Inhibition of human CAL-72 cell growth in a cell viability assay.

[44] = system: TYK-nu; type: functional, cell-based; conditions: Homo sapiens;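 further: growth inhibition of human TYK-nu cells, read out by a cell viability assay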
Description: SANGER: Inhibition of human TYK-nu cell growth in a cell viability assay.

[45] = system: VM-CUB-1; type: functional, cell-based; conditions: Homo sapiens;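 further: cell viability assay measuring growth inhibition of the human VM-CUB-1 cell line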
Description: SANGER: Inhibition of human VM-CUB-1 cell growth in a cell viability assay.

[46] = system: VMRC-RCZ; type: functional, cell-based; conditions: Homo sapiens;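 further: growth inhibition measured with a cell viability assay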
Description: SANGER: Inhibition of human VMRC-RCZ cell growth in a cell viability assay.

[47] = system: DMS-79; type: functional, cell-based, Homo sapiens; conditions: Homo sapiens, DMS-79;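 further: growth inhibition measured with a cell viability assay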
Description: SANGER: Inhibition of human DMS-79 cell growth in a cell viability assay.

Cc1ccc(-n2nc(C(C)(C)C)cc2NC(=O)Nc2ccc(OCCN3CCOCC3)c3ccccc23)cc1 [DORAMAPIMOD]
IC50 [1]: > 10 µM
IC50 [2]: > 10 µM
IC50 [3]: 3.94 µM
IC50 [4]: > 10 µM
IC50 [5]: > 10 µM
IC50 [6]: > 10 µM
IC50 [7]: > 10 µM
IC50 [8]: > 10 µM
IC50 [9]: > 10 µM
IC50 [10]: > 10 µM
IC50 [11]: > 10 µM
IC50 [12]: > 10 µM
IC50 [13]: > 10 µM
IC50 [14]: > 10 µM
IC50 [15]: > 10 µM
IC50 [16]: > 10 µM
IC50 [17]: > 10 µM
IC50 [18]: > 10 µM
IC50 [19]: > 10 µM
IC50 [20]: > 10 µM
IC50 [21]: > 10 µM
IC50 [22]: > 10 µM
IC50 [23]: > 10 µM
IC50 [24]: > 10 µM
IC50 [25]: > 10 µM
IC50 [26]: > 10 µM
IC50 [27]: > 10 µM
IC50 [28]: > 10 µM
IC50 [29]: > 10 µM
IC50 [30]: > 10 µM
IC50 [31]: > 10 µM
IC50 [32]: > 10 µM
IC50 [33]: > 10 µM
IC50 [34]: > 10 µM
IC50 [35]: > 10 µM
IC50 [36]: > 10 µM
IC50 [37]: > 10 µM
IC50 [38]: > 10 µM
IC50 [39]: > 10 µM
IC50 [40]: > 10 µM
IC50 [41]: > 10 µM
IC50 [42]: > 10 µM
IC50 [43]: > 10 µM
IC50 [44]: > 10 µM
IC50 [45]: > 10 µM
IC50 [46]: > 10 µM

CN(NC(=O)CC(=O)NN(C)C(=S)c1ccccc1)C(=S)c1ccccc1 [ELESCLOMOL]
IC50 [1]: 0.0551 µM
IC50 [2]: > 0.2 µM
IC50 [47]: > 0.2 µM
IC50 [3]: > 0.2 µM
IC50 [4]: 0.0168 µM
IC50 [5]: > 0.2 µM
IC50 [6]: > 0.2 µM
IC50 [7]: 0.111 µM
IC50 [8]: 0.0531 µM
IC50 [9]: 0.0245 µM
IC50 [10]: 0.0127 µM
IC50 [11]: 0.000791 µM
IC50 [12]: 0.0558 µM
IC50 [13]: 0.0141 µM
IC50 [14]: 0.104 µM
IC50 [15]: 0.0197 µM
IC50 [16]: > 0.2 µM
IC50 [17]: 0.014 µM
IC50 [18]: 0.00664 µM
IC50 [19]: 0.0144 µM
IC50 [20]: > 0.2 µM
IC50 [21]: 0.000886 µM
IC50 [22]: > 0.2 µM
IC50 [23]: 0.135 µM
IC50 [24]: > 0.2 µM
IC50 [25]: 0.0366 µM
IC50 [26]: > 0.2 µM
IC50 [27]: 0.00183 µM
IC50 [28]: 0.00963 µM
IC50 [29]: > 0.2 µM
IC50 [30]: 0.0366 µM
IC50 [31]: 0.0225 µM
IC50 [32]: 0.0092 µM
IC50 [33]: 0.0407 µM
IC50 [34]: 0.0303 µM
IC50 [35]: 0.107 µM
IC50 [36]: 0.0168 µM
IC50 [37]: 0.0069 µM
IC50 [38]: 0.00414 µM
IC50 [39]: 0.107 µM
IC50 [40]: 0.0263 µM
IC50 [41]: < 0.000781 µM
IC50 [42]: > 0.2 µM
IC50 [43]: 0.00302 µM
IC50 [44]: 0.0124 µM
IC50 [45]: 0.0127 µM
IC50 [46]: 0.108 µM

CC1=C(/C=C/C(C)=C/C=C/C(C)=C/C(=O)O)C(C)(C)CCC1 [TRETINOIN]
IC50 [1]: > 10 µM
IC50 [2]: > 10 µM
IC50 [47]: > 10 µM
IC50 [3]: > 10 µM
IC50 [4]: > 10 µM
IC50 [5]: > 10 µM
IC50 [6]: > 10 µM
IC50 [7]: > 10 µM
IC50 [8]: > 10 µM
IC50 [9]: > 10 µM
IC50 [10]: > 10 µM
IC50 [11]: > 10 µM
IC50 [12]: > 10 µM
IC50 [13]: > 10 µM
IC50 [14]: > 10 µM
IC50 [15]: > 10 µM
IC50 [16]: > 10 µM
IC50 [17]: > 10 µM
IC50 [18]: 7.13 µM
IC50 [19]: > 10 µM
IC50 [20]: > 10 µM
IC50 [21]: > 10 µM
IC50 [22]: > 10 µM
IC50 [23]: > 10 µM
IC50 [24]: > 10 µM
IC50 [25]: > 10 µM
IC50 [26]: > 10 µM
IC50 [27]: > 10 µM
IC50 [28]: > 10 µM
IC50 [29]: > 10 µM
IC50 [30]: > 10 µM
IC50 [31]: > 10 µM
IC50 [32]: > 10 µM
IC50 [33]: > 10 µM
IC50 [34]: > 10 µM
IC50 [35]: > 10 µM
IC50 [36]: > 10 µM
IC50 [37]: > 10 µM
IC50 [38]: > 10 µM
IC50 [39]: > 10 µM
IC50 [40]: > 10 µM
IC50 [41]: > 10 µM
IC50 [42]: > 10 µM
IC50 [43]: > 10 µM
IC50 [44]: > 10 µM
IC50 [45]: > 10 µM
IC50 [46]: > 10 µM
